The results in this text go back to ChEMBL document CHEMBL1201862, “PubChem BioAssay data set” (2004).

Some test systems named below: SK-OV-3; A549; SNB-19; SK-MEL-28; CAKI-1; UACC-257; HCT-116; M14; IGROV-1; SF-268; NCI-H226; HCC 2998; SK-MEL-2; 786-0; LOX IMVI; SK-MEL-5; U-251; NCI-H23.
Holding throughout (assay): DTP human tumour cell line panel, 48 h

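Method: 48-hour compound exposure of cells in 96-well plates, five concentrations, linear interpolation of endpoints. Here, GI50 denotes the concentration required for 50% inhibition of growth.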 Active and inactive are the calls of the source. No stated cut-off is given here; in the data, active = GI50 up to about 1.1 µM and inactive = higher.

As usually defined, the GI50 is the concentration giving 50% growth inhibition. `CCOC(=O)NC(=O)c1cn(CCOC(=O)NCCCCCCNC(=O)OCCn2cc(C(=O)NC(=O)OCC)c(=O)[nH]c2=O)c(=O)[nH]c1=O`: the GI50 with SK-OV-3, with A549, with SNB-19, in the experiment on SK-MEL-28, with CAKI-1 and with UACC-257 was > 100 µM (inactive) throughout. In addition, the GI50 in the experiment with HCT-116, in the experiment with M14, with IGROV-1, in the experiment on SF-268, in the experiment with NCI-H226 and in the experiment with HCC 2998 was > 100 µM (inactive) each time. Moreover, the GI50 in the experiment on SK-MEL-2, in the experiment with 786-0, with LOX IMVI, in the experiment with SK-MEL-5 and in the experiment on U-251 was > 100 µM (inactive) in each case.
Turning to `CC12N=NNC1C(=O)NC2=O` (stereo unspecified), the GI50 in the experiment on NCI-H23, in the experiment with SK-OV-3, with A549, in the experiment on SNB-19, with SK-MEL-28 and in the experiment on CAKI-1 was > 100 µM (inactive) throughout. Besides, the GI50 with UACC-257, in the experiment on HCT-116, in the experiment on IGROV-1, in the experiment on SF-268, in the experiment on NCI-H226 and in the experiment with HCC 2998 was > 100 µM (inactive) throughout. The GI50 in the experiment with SK-MEL-2, in the experiment with 786-0, in the experiment with LOX IMVI, in the experiment with SK-MEL-5 and in the experiment with U-251 was > 100 µM (inactive) in each case.
For the compound `CC1(C)COC(c2c(-c3ccccc3)noc2C[S+]([O-])c2ccccc2)=N1` (stereo unspecified), the GI50 is 32.3 µM (inactive) in the experiment with NCI-H23; 72.3 µM (inactive) in the experiment on SK-OV-3; 46 µM (inactive) in the experiment with A549; > 100 µM (inactive) in the experiment with SNB-19; 33.1 µM (inactive) with SK-MEL-28; 61.5 µM (inactive) with CAKI-1. Also, the GI50 was 52.1 µM (inactive) with UACC-257; 28.2 µM (inactive) with HCT-116; 48.9 µM (inactive) with M14; 88.5 µM (inactive) with IGROV-1; 19.9 µM (inactive) in the experiment with SF-268; 30.3 µM (inactive) in the experiment with NCI-H226. In addition, the GI50 in the experiment on HCC 2998 was 32.3 µM (inactive); with SK-MEL-2, 24.5 µM (inactive); in the experiment with 786-0, 76.6 µM (inactive); in the experiment on LOX IMVI, 41 µM (inactive); in the experiment with SK-MEL-5, 38.3 µM (inactive); in the experiment on U-251 it was 32.5 µM (inactive).
Take `CN1C(=O)C2C=CC1C1CCC2N(C)C1=O` (stereo unspecified): the GI50 with NCI-H23, in the experiment with SK-OV-3, with A549, in the experiment on SNB-19, in the experiment with SK-MEL-28 and with CAKI-1 was > 100 µM (inactive) throughout. Moreover, the GI50 with UACC-257, in the experiment with HCT-116, with M14, with IGROV-1, with SF-268 and in the experiment on NCI-H226 was > 100 µM (inactive) throughout. The GI50 with HCC 2998, in the experiment on SK-MEL-2, with 786-0, with LOX IMVI, in the experiment on SK-MEL-5 and in the experiment with U-251 was > 100 µM (inactive) each time.
Consider `CC[C@@H](C)[C@@H]1NC(=O)C(C(C)=O)=C1O`, for which the GI50 is 20.1 µM (inactive) in the experiment with NCI-H23; 23.2 µM (inactive) in the experiment on SK-OV-3; 26.4 µM (inactive) with A549; 0.297 µM (active) with SNB-19; 3.02 µM (inactive) in the experiment with SK-MEL-28; 0.456 µM (active) in the experiment on CAKI-1. For the same compound, the GI50 is 34.2 µM (inactive) in the experiment on UACC-257; 18.7 µM (inactive) in the experiment with HCT-116; 17.1 µM (inactive) with M14; 25.6 µM (inactive) in the experiment on IGROV-1; 24.1 µM (inactive) in the experiment with SF-268; 31.7 µM (inactive) in the experiment on NCI-H226. Moreover, the GI50 with HCC 2998 was 30.8 µM (inactive); in the experiment with SK-MEL-2, 15.3 µM (inactive); with 786-0, 22.4 µM (inactive); in the experiment with LOX IMVI, 26.1 µM (inactive); in the experiment with SK-MEL-5, 15.6 µM (inactive); in the experiment on U-251 it was 18.8 µM (inactive).
As for `C=C1C(=O)OC2C[C@H](C)C3CC(=O)C(C)=C3CC12` (stereo partly specified), the GI50 is 13.6 µM (inactive) in the experiment on NCI-H23; > 57 µM (inactive) in the experiment on SK-OV-3; 24.5 µM (inactive) with A549; 32.9 µM (inactive) in the experiment on SNB-19; 5.28 µM (inactive) in the experiment on SK-MEL-28; 5.09 µM (inactive) in the experiment with CAKI-1. For the same compound, the GI50 with UACC-257 is 13.1 µM (inactive); with HCT-116, 6.38 µM (inactive); in the experiment on M14 it was 12.4 µM (inactive); with IGROV-1, 15.4 µM (inactive); with SF-268, 18.2 µM (inactive); in the experiment on NCI-H226 it was 2.94 µM (inactive). Further, the GI50 with HCC 2998 was 15.5 µM (inactive); in the experiment with SK-MEL-2 it was 14.2 µM (inactive); in the experiment on 786-0, 13 µM (inactive); in the experiment with LOX IMVI it was 15 µM (inactive); in the experiment on SK-MEL-5 it was 15.5 µM (inactive); in the experiment with U-251, 12.4 µM (inactive).
Take `CCCCCC/C=C1\CCC(CN2CCOCC2)C1=O` (stereo unspecified): the GI50 in the experiment on NCI-H23 is 16.9 µM (inactive); with SK-OV-3, 35.8 µM (inactive); with A549, > 45.1 µM (inactive); with SNB-19, 18.6 µM (inactive); in the experiment with SK-MEL-28 it was 16.9 µM (inactive); in the experiment with CAKI-1, 16.8 µM (inactive). The GI50 in the experiment on UACC-257 is 15.1 µM (inactive); in the experiment with HCT-116 it was 14.4 µM (inactive); with M14, 14.6 µM (inactive); with IGROV-1 it was 19 µM (inactive); with SF-268, 19.6 µM (inactive); with NCI-H226 it was 16 µM (inactive). Besides, the GI50 in the experiment with HCC 2998 was 19.2 µM (inactive); with SK-MEL-2, 18.7 µM (inactive); with 786-0, 4.23 µM (inactive); in the experiment with LOX IMVI it was 10.2 µM (inactive); in the experiment with SK-MEL-5, 18.1 µM (inactive); in the experiment with U-251, 15.5 µM (inactive).
In the case of `Cn1c(=O)cc2[nH]c3ccccc3n2c1=O`, the GI50 in the experiment with NCI-H23 was > 100 µM (inactive); with SK-OV-3, 48.8 µM (inactive); in the experiment on A549, > 100 µM (inactive); in the experiment on SNB-19, > 100 µM (inactive); in the experiment with SK-MEL-28, > 100 µM (inactive); in the experiment with CAKI-1 it was > 100 µM (inactive). Further, the GI50 in the experiment on UACC-257 is > 100 µM (inactive); with HCT-116 it was > 10 µM (inactive); in the experiment on M14 it was 72.9 µM (inactive); with IGROV-1, > 100 µM (inactive); in the experiment on SF-268, > 100 µM (inactive); in the experiment on NCI-H226, 55.6 µM (inactive). In addition, the GI50 in the experiment on HCC 2998 was 72.8 µM (inactive); in the experiment with SK-MEL-2, > 100 µM (inactive); with 786-0, 24 µM (inactive); with LOX IMVI, 20.2 µM (inactive); in the experiment on SK-MEL-5, > 100 µM (inactive); in the experiment with U-251, 16.2 µM (inactive).
Regarding `COC(=O)[C@@]1(C(C)CC(=O)O)CCCCC1=O` (stereo partly specified), the GI50 in the experiment on NCI-H23, in the experiment with SK-OV-3, with A549, with SNB-19, with SK-MEL-28 and with CAKI-1 was > 100 µM (inactive) throughout. For the same compound, the GI50 with UACC-257, with HCT-116, in the experiment with M14, with IGROV-1, in the experiment with SF-268 and with NCI-H226 was > 100 µM (inactive) throughout. Moreover, the GI50 with HCC 2998 is > 100 µM (inactive); in the experiment with SK-MEL-2, > 100 µM (inactive); in the experiment with 786-0, 27 µM (inactive); with LOX IMVI, 93.8 µM (inactive); with SK-MEL-5 it was > 100 µM (inactive); in the experiment with U-251, > 100 µM (inactive).
Take `CC(C)(C)OC(=O)C#CC[C@H]1CCCC1/C=C/C(O)=C1/C(=O)NC(CCCNC(=O)OC(C)(C)C)C1=O` (stereo partly specified): the GI50 is 24.9 µM (inactive) with NCI-H23; 88.5 µM (inactive) with SK-OV-3; > 100 µM (inactive) in the experiment with A549; 30.6 µM (inactive) with SNB-19; 17.1 µM (inactive) in the experiment with SK-MEL-28; 38.8 µM (inactive) with CAKI-1. Further, the GI50 was 24.2 µM (inactive) in the experiment with UACC-257; 11.4 µM (inactive) in the experiment on HCT-116; 45.7 µM (inactive) in the experiment with M14; 39.5 µM (inactive) with IGROV-1; 23.9 µM (inactive) with SF-268; 88.1 µM (inactive) in the experiment on NCI-H226. The GI50 was 42.9 µM (inactive) in the experiment on HCC 2998; 16.6 µM (inactive) in the experiment on SK-MEL-2; 40.6 µM (inactive) in the experiment with 786-0; 19.8 µM (inactive) in the experiment on LOX IMVI; 47.8 µM (inactive) with SK-MEL-5; 25.9 µM (inactive) with U-251.
Regarding `Cn1cnc([N+](=O)[O-])c1Sc1nc2ccccc2o1`, the GI50 is 5.22 µM (inactive) in the experiment on NCI-H23; 22.8 µM (inactive) in the experiment on SK-OV-3; 23.1 µM (inactive) in the experiment on A549; 17.7 µM (inactive) in the experiment on SNB-19; 5.78 µM (inactive) in the experiment on SK-MEL-28; 1.9 µM (inactive) in the experiment on CAKI-1. The GI50 in the experiment on UACC-257 was 5.86 µM (inactive); in the experiment on HCT-116, 3.58 µM (inactive); in the experiment on M14 it was 6.35 µM (inactive); in the experiment with IGROV-1 it was 13.2 µM (inactive); with SF-268, 8.32 µM (inactive); in the experiment on NCI-H226, 15.1 µM (inactive). The GI50 in the experiment with HCC 2998 is 11 µM (inactive); with SK-MEL-2 it was 28.1 µM (inactive); in the experiment on 786-0, 14 µM (inactive); in the experiment with LOX IMVI, 10.7 µM (inactive); with SK-MEL-5, 13.3 µM (inactive); in the experiment with U-251, 12.6 µM (inactive).
